Experimental data: patent US20030073618A1, “Compounds comprising disulfide-containing peptides and nitrogenous bases, and medical uses thereof” (priority 2001, published 2003)
Like-named read-outs stand apart in the source and are kept apart here.

How the values were obtained:
HIV = assay type: in vivo; set-up: Hemoglobin / Platelets / Leukocytes / ESR: unit not given beside the values; (CD25+) / HLA-DR / (CD16) / IgA / IgM / IgG / CIC / (CD20+) / CD4+ / CD8+: unit not given here; conditions: for Lymphocyte count / Weight gained / Karnovsky score: Ex. 13; for Karnovsky score: on admission 75; for Erythrocytes / Hemoglobin / Leukocytes / Monocytes / Platelets / Segmented neutrophils / Stab neutrophils / ESR: general blood test; for (CD16) / (CD20+) / (CD25+) / CD4+ / CD4/CD8 / CD8+ / CIC / HLA-DR / IgA / IgG / IgM: immune blood test
[1] = tested on: mycobacterium tuberculosis; conditions: Ex. 16

Cc1cn([C@H]2C[C@H](O)[C@@H](COP(=O)(O)N[C@@H](CCC(=O)N[C@@H](CSSC[C@H](NC(=O)CC[C@H](N)C(=O)O)C(=O)NCC(=O)[O][Zn])C(=O)NCC(=O)[O][Zn])C(=O)O)O2)c(=O)[nH]c1=O [Zn2-GSSG-TMP]
Viral load (HIV; 1-month treatment): 66000 copies of HIV RNA/ml
Lymphocyte count (HIV; after 1-month treatment): 1276
Weight gained (HIV; after 1-month treatment): 1.8 kg
Karnovsky score (HIV; after 1-month treatment): 80
Lymphocyte count (HIV; after completion of treatment): 2295
Weight gained (HIV; after completion of treatment): 2.5 kg
Karnovsky score (HIV; after completion of treatment): 90
Viral load (HIV; Initial value): 80000 copies of HIV RNA/ml
Viral load (HIV; Treatment completion): 15000 copies of HIV RNA/ml
Erythrocytes (HIV; 01.04.96): 3.9
Hemoglobin (HIV; 01.04.96): 126
Leukocytes (HIV; 01.04.96): 3.5
Monocytes (HIV; 01.04.96): 2
Platelets (HIV; 01.04.96): 180
Segmented neutrophils (HIV; 01.04.96): 41
Stab neutrophils (HIV; 01.04.96): 3
ESR (HIV; 03.04.96): 21
Erythrocytes (HIV; 03.04.96): 3.9
Hemoglobin (HIV; 03.04.96): 125
Leukocytes (HIV; 03.04.96): 2.6
Monocytes (HIV; 03.04.96): 7
Platelets (HIV; 03.04.96): 170
Segmented neutrophils (HIV; 03.04.96): 47
Stab neutrophils (HIV; 03.04.96): 8
ESR (HIV; 13.03.96): 18
Erythrocytes (HIV; 13.03.96): 5
Hemoglobin (HIV; 13.03.96): 160
Leukocytes (HIV; 13.03.96): 2.4
Monocytes (HIV; 13.03.96): 2
Platelets (HIV; 13.03.96): 200
Segmented neutrophils (HIV; 13.03.96): 48
Stab neutrophils (HIV; 13.03.96): 5
ESR (HIV; 15.05.96): 12
Erythrocytes (HIV; 15.05.96): 4.2
Hemoglobin (HIV; 15.05.96): 136
Leukocytes (HIV; 15.05.96): 4.5
Monocytes (HIV; 15.05.96): 3
Platelets (HIV; 15.05.96): 190
Segmented neutrophils (HIV; 15.05.96): 49
Stab neutrophils (HIV; 15.05.96): 7
ESR (HIV; 16.04.96): 20
Erythrocytes (HIV; 16.04.96): 4
Hemoglobin (HIV; 16.04.96): 129
Leukocytes (HIV; 16.04.96): 2.9
Monocytes (HIV; 16.04.96): 2
Platelets (HIV; 16.04.96): 180
Segmented neutrophils (HIV; 16.04.96): 45
Stab neutrophils (HIV; 16.04.96): 8
ESR (HIV; 28.03.96): 16
Erythrocytes (HIV; 28.03.96): 4.3
Hemoglobin (HIV; 28.03.96): 136
Leukocytes (HIV; 28.03.96): 2.9
Monocytes (HIV; 28.03.96): 2
Segmented neutrophils (HIV; 28.03.96): 35
Stab neutrophils (HIV; 28.03.96): 4
(CD16) (HIV; 03.04.96): 198
(CD20+) (HIV; 03.04.96): 217
(CD25+) (HIV; 03.04.96): 207
CD4+ (HIV; 03.04.96): 247
CD4/CD8 (HIV; 03.04.96): 0.89
CD8+ (HIV; 03.04.96): 277
CIC (HIV; 03.04.96): 0.175
HLA-DR (HIV; 03.04.96): 237
IgA (HIV; 03.04.96): 2.1
IgG (HIV; 03.04.96): 20
IgM (HIV; 03.04.96): 4.6
(CD16) (HIV; 13.03.96): 216
(CD20+) (HIV; 13.03.96): 256
(CD25+) (HIV; 13.03.96): 226
CD4+ (HIV; 13.03.96): 276
CD4/CD8 (HIV; 13.03.96): 0.78
CD8+ (HIV; 13.03.96): 354
CIC (HIV; 13.03.96): 0.09
HLA-DR (HIV; 13.03.96): 354
IgA (HIV; 13.03.96): 1.8
IgG (HIV; 13.03.96): 18.8
IgM (HIV; 13.03.96): 2.6
(CD16) (HIV; 15.05.96): 505
(CD20+) (HIV; 15.05.96): 390
(CD25+) (HIV; 15.05.96): 482
CD4+ (HIV; 15.05.96): 574
CD4/CD8 (HIV; 15.05.96): 0.96
CD8+ (HIV; 15.05.96): 597
CIC (HIV; 15.05.96): 0.075
HLA-DR (HIV; 15.05.96): 665
IgA (HIV; 15.05.96): 1.5
IgG (HIV; 15.05.96): 28
IgM (HIV; 15.05.96): 3.1
(CD16) (HIV; 17.04.96): 332
(CD20+) (HIV; 17.04.96): 306
(CD25+) (HIV; 17.04.96): 332
CD4+ (HIV; 17.04.96): 319
CD4/CD8 (HIV; 17.04.96): 0.86
CD8+ (HIV; 17.04.96): 370
CIC (HIV; 17.04.96): 0.11
HLA-DR (HIV; 17.04.96): 434
IgA (HIV; 17.04.96): 1.6
IgG (HIV; 17.04.96): 24
IgM (HIV; 17.04.96): 5.2

N[C@@H](CCC(=O)N[C@@H](CSSC[C@H](NC(=O)CC[C@H](NP(=O)(O)OC[C@H]1O[C@@H](n2cnc3c(=O)[nH]cnc32)[C@H](O)[C@@H]1O)C(=O)O)C(=O)NCC(=O)[O-])C(=O)NCC(=O)[O-])C(=O)O.[Li+].[Li+] [Li2-GSSG-IMP]
Karnovsky score ([1]; in 2 months): 75
Temperature ([1]; in 2 months, on admission 37.5): 36.7 °C
Weight gained ([1]; in a month): 4 kg
Karnovsky score ([1]; in a month, on admission 50, with antibacterial therapy): 70
Bacterial discharge, in the vision field by microscopy ([1]; in a month, on admission up to 100): 2-4
Karnovsky score ([1]; on treatment completion): 90
Temperature ([1]; on treatment completion): 36.6 °C
X-ray, destruction cavity ([1]; on treatment completion, on admission 4×3 cm): destruction cavity in the left lung upper lobe healed
